Experiments:
[1] = tested on: Lampyridae; assay: V max is determined from stimulation of firefly light organ adenylate cyclase; assay type: functional
[2] = Ratio of (Ka) of octopamine to that of compound; assay type: ADME
[3] = Kinetic constant (Ka) of compound against octopamine receptor; assay type: ADME
[4] = tested on: Lampyridae; assay: Vmax is determined from stimulation of firefly light organ adenylate cyclase; assay type: functional

Compound | Vmax [1] [%] | Ratio [2] | further results
NCC(O)c1ccc(O)cc1 (stereo not given) [OCTOPAMINE] | 100 | 1 | –
CCc1cc(N)cc(CC)c1N=C1NCCN1 | – | 1.3 | –
CCc1c(Br)c(N)c(Br)c(CC)c1NC1=NCCN1 | 24 | – | –
CCc1c(Br)c(N)c(Br)c(CC)c1N=C1NCCN1 | – | 15 | –
CCc1cc(N=[N+]=[N-])cc(CC)c1N=C1NCCN1 | – | 70 | Ka [3]: 350 nM
CN(CCCl)c1cc(Cl)c(N=C2NCCN2)c(Cl)c1 | – | 6 | –
CN(CCCl)c1cc(Cl)c(NC2=NCCN2)c(Cl)c1 | 5 | – | –
CCc1cc(N)cc(CC)c1NC1=NCCN1 | 82 | – | –
CCc1cccc(CC)c1NC1=NCCN1 | – | 12 | Vmax [4]: 100%
CCc1cc(N=[N+]=[N-])cc(CC)c1NC1=NCCN1 | 100 | – | Vmax ([1]; tested as the 3H-labelled form): 100%
[3H]c1c(CC)c(N=C2NCCN2)c(CC)c([3H])c1N=[N+]=[N-] | – | 86 | –

Source: ChEMBL document CHEMBL1124635, “A probe for octopamine receptors: synthesis of 2-[(4-azido-2,6-diethylphenyl)imino]imidazolidine and its tritiated derivative, a potent reversible-irreversible activator of octopamine-sensitive adenylate cyclase” (J Med Chem, 1989)
